Assay results: EP0444898A1, “Cyclic hexapeptide oxytocin antagonists” (MERCK & CO. INC., priority 1990, dated 1991)

Target: T1, uterine OT receptors (Rattus norvegicus, UniProt P70536)
T1 construct: a crude membrane preparation of uteri; from tissue; host or cells: uterus of DES-treated rats, crude membranes
T1 sequence (P70536 1-388): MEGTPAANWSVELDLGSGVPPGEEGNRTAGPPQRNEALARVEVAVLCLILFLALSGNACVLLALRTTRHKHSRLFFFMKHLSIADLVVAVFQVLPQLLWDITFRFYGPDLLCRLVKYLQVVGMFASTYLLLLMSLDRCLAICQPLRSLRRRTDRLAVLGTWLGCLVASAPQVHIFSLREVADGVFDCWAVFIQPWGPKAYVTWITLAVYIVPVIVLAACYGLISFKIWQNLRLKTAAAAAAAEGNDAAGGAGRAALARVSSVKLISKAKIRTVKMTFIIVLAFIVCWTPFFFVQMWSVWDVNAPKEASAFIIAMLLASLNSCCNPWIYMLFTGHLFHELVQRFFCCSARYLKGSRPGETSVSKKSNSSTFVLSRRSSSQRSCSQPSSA
Test: [3H]OT radioligand binding to uterine OT receptors, crude membrane preparation
Parameters: species or system rats
Conditions: saturation binding assays; uterus

[tyrosyl, 3,5-^3H]OT [[^3H]OT]
Kd: 0.7 nM
